Source: patent publication US20070004649A1, “Anti-influenza virus compound comprising biflavonoid-sialic acid glycoside” (The Kitasato Institute, priority 2003, published 2007)
Read-outs that look alike come from different tables or passages of the source.

Legend:
[1] = molecular target: B/Ibaraki/2/85 virus sialidase (Influenza B virus, UniProt P16207); experiment: Inhibitory activity against influenza B/Ibaraki/2/85 virus sialidase (4-MU-NeuAc substrate, HA vaccine as enzyme); type: biochemical, influenza virus B/Ibaraki/2/85
[2] = molecular target: A/PR/8/34 virus sialidase (Influenza A virus, UniProt P03468); experiment: Inhibitory activity against influenza A/PR/8/34 virus sialidase (4-MU-NeuAc substrate, HA vaccine as enzyme); type: biochemical, influenza virus A/PR/8/34 (H1N1 subtype)
[3] = molecular target: A/Guizhou/54/89 virus sialidase (Influenza A virus, UniProt I6UMM5); experiment: Inhibitory activity against influenza A/Guizhou/54/89 virus sialidase (4-MU-NeuAc substrate, HA vaccine as enzyme); type: biochemical, influenza virus A/Guizhou/54/89 (H3N2 subtype)
[4] = system: influenza virus; settings: cited from earlier work
[5] = system: influenza virus; settings: cited from earlier work; remark: listed apart in the source
[6] = system: MDCK (Madin-Darby canine kidney) cells; experiment: Cytotoxicity in non-infected MDCK cells (MTT method); settings: 12.5 μg/mL, three days
[7] = final concentration of 10 μg/mL

A/PR/8/34 virus sialidase, sequence (P03468 whole entry): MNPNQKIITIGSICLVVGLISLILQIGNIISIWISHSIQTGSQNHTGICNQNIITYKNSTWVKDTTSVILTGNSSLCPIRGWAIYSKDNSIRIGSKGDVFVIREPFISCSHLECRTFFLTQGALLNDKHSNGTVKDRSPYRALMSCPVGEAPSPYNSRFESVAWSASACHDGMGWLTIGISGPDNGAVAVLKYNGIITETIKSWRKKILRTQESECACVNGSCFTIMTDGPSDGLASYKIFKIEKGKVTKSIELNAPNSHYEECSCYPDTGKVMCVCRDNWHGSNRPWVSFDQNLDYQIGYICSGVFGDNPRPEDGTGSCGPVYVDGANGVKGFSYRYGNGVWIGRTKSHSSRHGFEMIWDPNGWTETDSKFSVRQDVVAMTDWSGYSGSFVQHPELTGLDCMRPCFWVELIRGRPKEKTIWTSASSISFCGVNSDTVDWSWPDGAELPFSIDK
A/Guizhou/54/89 virus sialidase, sequence (I6UMM5 1-469): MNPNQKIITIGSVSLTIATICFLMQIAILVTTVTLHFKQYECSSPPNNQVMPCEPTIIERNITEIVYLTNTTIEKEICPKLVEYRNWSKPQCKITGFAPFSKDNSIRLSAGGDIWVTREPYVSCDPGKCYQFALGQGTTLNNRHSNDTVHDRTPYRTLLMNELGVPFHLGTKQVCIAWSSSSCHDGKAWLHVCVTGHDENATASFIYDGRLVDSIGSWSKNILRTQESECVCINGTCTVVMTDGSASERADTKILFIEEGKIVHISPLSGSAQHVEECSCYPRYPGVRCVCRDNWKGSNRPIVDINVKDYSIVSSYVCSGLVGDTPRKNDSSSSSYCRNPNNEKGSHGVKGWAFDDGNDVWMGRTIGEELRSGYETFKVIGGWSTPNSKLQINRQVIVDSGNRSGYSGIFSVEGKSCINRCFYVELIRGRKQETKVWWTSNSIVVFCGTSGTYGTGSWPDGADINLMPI
B/Ibaraki/2/85 virus sialidase, sequence (P16207 whole entry): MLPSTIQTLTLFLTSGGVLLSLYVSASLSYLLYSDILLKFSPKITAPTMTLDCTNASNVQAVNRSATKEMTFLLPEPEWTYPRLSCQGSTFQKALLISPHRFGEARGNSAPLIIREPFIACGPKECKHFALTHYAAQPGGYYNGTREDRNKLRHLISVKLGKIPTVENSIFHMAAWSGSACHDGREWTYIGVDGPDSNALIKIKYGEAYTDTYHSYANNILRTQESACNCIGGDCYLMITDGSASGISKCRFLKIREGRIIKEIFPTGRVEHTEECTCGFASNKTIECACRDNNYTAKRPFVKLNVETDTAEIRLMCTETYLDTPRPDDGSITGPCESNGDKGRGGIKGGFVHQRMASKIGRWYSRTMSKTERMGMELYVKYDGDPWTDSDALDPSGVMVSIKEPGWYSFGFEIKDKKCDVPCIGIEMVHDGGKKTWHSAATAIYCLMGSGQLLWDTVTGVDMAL

## COc1ccc(-c2cc(=O)c3c(O)cc(O[C@]4(C(=O)O)C[C@H](O)[C@@H](NC(C)=O)[C@H]([C@H](O)[C@H](O)CO)O4)c(-c4cc(-c5cc(=O)c6c(O)cc(OC)cc6o5)ccc4OC)c3o2)cc1 (relative stereo) [Sci-Neu-2, (S)-7″-O-(N-acetylneuraminyl)-7,4′,4′″-tri-O-methylamentoflavone]
[1]; [7]
  inhibition at 10 µg/mL: 65%
[1]; final concentration of 100 μg/mL
  inhibition at 100 µg/mL: ≥ 80%
[2]
  IC50: 5.74 µM
[2]; even at a final concentration of 10 μg/mL (second sentence of b311), read-out: inhibitory activity against the A/PR/8/34 virus sialidase
  inhibition at 10 µg/mL: ≥ 70%
[2]; read-out: inhibitory activity against the A/PR/8/34 virus sialidase, final concentration of 10 μg/mL (first sentence of b311)
  inhibition at 10 µg/mL: ≥ 80%
[3]
  IC50: 1.15 µM
[3]; final concentration of 1 μg/mL
  inhibition at 1 µg/mL: ~50%
[3]; [7]
  inhibition at 10 µg/mL: ≥ 80%
other
  melting point: 200 °C (dec.)

## COc1c(O)cc(O)c2c(=O)cc(-c3ccc(O)cc3)oc12 [F36, 5,7,4′-trihydroxy-8-methoxyflavone]
[4]
  anti-influenza virus activity in vivo: has anti-influenza virus activity
[5]
  anti-influenza virus activity in vitro: has anti-influenza virus activity

## COc1cc(O)c2c(=O)cc(-c3ccc(OC)c(-c4c(OC5(C(=O)O)CC(O)C(NC(C)=O)C(C(O)C(O)CO)O5)cc(O)c5c(=O)cc(-c6ccc(OC7(C(=O)O)CC(O)C(NC(C)=O)C(C(O)C(O)CO)O7)cc6)oc45)c3)oc2c1 [Gin-Neu-2-(S), (S)-7″,4′″-di-O-(N-acetylneuraminyl)-7,4′-di-O-methylamentoflavone]
[3]; final concentration of 1 μg/mL
  inhibitory activity against the A/Guizhou/54/89 virus sialidase: about 50%

## COC(=O)C1(Oc2cc(O)c3c(=O)cc(-c4ccc(O)cc4)oc3c2-c2cc(-c3cc(=O)c4c(O)cc(OC)cc4o3)ccc2OC)CC(OC(C)=O)C(NC(C)=O)C(C(OC(C)=O)C(COC(C)=O)OC(C)=O)O1 [Gin-NeuAc-3, (S)-7,4′-di-O-methyl-7″-O-(1″″-methyl-4″″,7″″,8″″,9″″-tetra-O-acetyl-N-acetylneuraminyl)a mentoflavone]
[3]; final concentration of 1 μg/mL
  inhibitory activity against the A/Guizhou/54/89 virus sialidase: about 50%

## COC(=O)C1(Oc2ccc(-c3cc(=O)c4c(O)cc(OC5(C(=O)OC)C[C@H](OC(C)=O)[C@@H](NC(C)=O)[C@H]([C@H](OC(C)=O)[C@@H](COC(C)=O)OC(C)=O)O5)c(-c5cc(-c6cc(=O)c7c(O)cc(OC)cc7o6)ccc5OC)c4o3)cc2)C[C@H](OC(C)=O)[C@@H](NC(C)=O)[C@H]([C@H](OC(C)=O)[C@@H](COC(C)=O)OC(C)=O)O1 (stereo partly drawn) [Gin-NeuAc-4, (R)-7,4′-di-O-methyl-7″-O-(1″″-methyl-4″″,7″″,8″″,9″″-tetra-O-acetyl-N-acetylneuraminyl)-4′″-O-(1′″″-methyl-4′″″,7′″″,8′″″,9′″″-tetra-O-acetyl-N-acetylneuraminyl)amentoflavone]
[3]; final concentration of 1 μg/mL
  inhibitory activity against the A/Guizhou/54/89 virus sialidase: about 50%

## COc1cc(O)c2c(=O)cc(-c3ccc(OC)c(-c4c(O)cc(O)c5c(=O)cc(-c6ccc(O)cc6)oc45)c3)oc2c1 [ginkgetin]
[6]
  cytotoxicity (cell viability by the MTT method): showed cytotoxicity

## COc1ccc(-c2cc(=O)c3c(O)cc(O)c(-c4cc(-c5cc(=O)c6c(O)cc(O)cc6o5)ccc4OC)c3o2)cc1 [isoginkgetin]
[6]
  cytotoxicity (cell viability by the MTT method): showed cytotoxicity

## (5)-7″-O-(N-acetylneuraminal)-7,4′-di-O-methylamentoflavone [Gin-Neu-1-(S)]
[3]; final concentration of 1 μg/mL
  inhibitory activity against the A/Guizhou/54/89 virus sialidase: about 50%

## (R)-7″-O-(N-acetylneuraminyl)-7,4-di-O-methylamentoflavone [Gin-Neu-1-(R)]
[3]
  IC50, A/Guizhou/54/89 virus sialidase: 1 µg/mL
[3]; final concentration of 1 μg/mL
  inhibitory activity against the A/Guizhou/54/89 virus sialidase: about 50%
